In patent US20250099512A1, “USE OF BACTEROIDES FRAGILIS IN IMPROVEMENT AND TREATMENT OF DIARRHEA” (priority 2022, published 2025):
Counter-ions that a name gives are not always drawn.

Columns and labels:
[1] = test system: Cryptosporidium cuniculus; assay: Effect on diarrhea in rabbits infected with Cryptosporidium cuniculus, oocysts in stools (Example 12); assay type: in vivo, New Zealand white rabbits
Excerpt: A parasite-associated diarrhea model was constructed by intragastric administration of Cryptosporidium cuniculus oocysts (extracted from a single positive stool sample from a rabbit farm in Jilin) in New Zealand white rabbits. Subsequently, the Bacteroides fragilis live bacteria solution, inactivated bacteria powder and lysate solution (prepared in Example 2) were each used for treatment. The therapeutic effects of the Bacteroides fragilis live bacteria solution, inactivated bacteria powder and lysate solution were observed.
New Zealand white rabbits aged 35 days were selected and randomly divided into the following 6 groups: a blank group (group 1), a model group (group 2), a positive control group (nitazoxanide) (group 3), a Bacteroides fragilis inactivated bacteria powder group (group 4), a Bacteroides fragilis lysate solution group (group 5), and a Bacteroides fragilis live bacteria solution group (group 6), with 8 rabbits in each group. The New Zealand white rabbits in groups 2 to 6 were intragastrically inoculated with 1.5×10^4 Cryptosporidium cuniculus oocysts, and the blank group was intragastrically given normal saline. […] The stools were collected to prepare a stool suspension, and structures with oocysts were observed under a microscope, indicating successful modeling. Therefore, treatment could be carried out. The blank group was given normal saline, and the treatment groups were subjected to drug administration. The treatment was carried out twice daily for 7 consecutive days. The New Zealand white rabbits were observed daily for diarrhea condition. On day 1 of the treatment and at the end of the treatment, the stool samples were collected, and the number of oocysts was observed under a microscope.

[2] = test system: mice with Escherichia coli-induced diarrhea; assay: Effect on mice with Escherichia coli-induced diarrhea (Example 6); assay type: in vivo; conditions: positive control, berberine hydrochloride 0.01 g/mL i.g. QD*7 days; Escherichia coli i.p. model
Experimental: Escherichia coli preserved on a slant was inoculated on a nutrient agar plate and cultured at 37° C. for 24 h. Several colonies were then picked, inoculated into MH broth, followed by another 24 hours of culture at 37° C. The culture was then diluted with sterilized normal saline and subjected to turbidity adjustment using a 0.5 Mcfarland turbidimetric tube, thus achieving a bacterial content of 3×10^8 CFU/mL.
Mice weighing about 20 g were selected, and each mouse was intraperitoneally injected with 0.2 mL of the Escherichia coli bacteria solution with a bacterial content of 3×10^8 CFU/mL for diarrhea induction. A positive control group received a 0.01 g/mL aqueous berberine hydrochloride solution administered intragastrically. The experimental grouping and procedures were the same as in Example 3. The mice were continuously observed for 5 h, and the diarrhea indices of the mice were recorded.

Row | SMILES | Number of oocysts in stools (×10^6 oocysts/rabbit, mean ± SD) ([1]; D 1 of administration, i.g. Bid*7 days, nitazoxanide 10 mg/kg, Bacteroides fragilis 1 × 10^8 cells/mL) | Number of oocysts in stools (×10^6 oocysts/rabbit, mean ± SD) ([1]; D 2 of administration, doses as Table 23) | Number of oocysts in stools (×10^6 oocysts/rabbit, mean ± SD) ([1]; D 3 of administration, doses as Table 23) | Number of oocysts in stools (×10^6 oocysts/rabbit, mean ± SD) ([1]; D 4 of administration, doses as Table 23) | Number of oocysts in stools (×10^6 oocysts/rabbit, mean ± SD) ([1]; D 5 of administration, doses as Table 23) | Number of oocysts in stools (×10^6 oocysts/rabbit, mean ± SD) ([1]; D 6 of administration, doses as Table 23) | Number of oocysts in stools (×10^6 oocysts/rabbit, mean ± SD) ([1]; D 7 of administration, doses as Table 23) | total number of oocysts in the stools of each New Zealand rabbit during the treatment period ([1]; FIG. 5, P<0.0001, doses as Table 23) | Diarrhea index [2]
1 | CC(=O)Oc1ccccc1C(=O)Nc1ncc([N+](=O)[O-])s1 [nitazoxanide] | 1.8 ± 0.6 ×10^6 oocysts/rabbit | 3.2 ± 1.5 ×10^6 oocysts/rabbit | 2.8 ± 0.9 ×10^6 oocysts/rabbit | 2.2 ± 0.2 ×10^6 oocysts/rabbit | 1.5 ± 1.1 ×10^6 oocysts/rabbit | 1.3 ± 0.1 ×10^6 oocysts/rabbit | 0.6 ± 0.2 ×10^6 oocysts/rabbit | significantly lower than that in the model group | 
2 | COc1ccc2cc3[n+](cc2c1OC)CCc1cc2c(cc1-3)OCO2 [berberine hydrochloride] |  |  |  |  |  |  |  |  | 1.25 ± 0.13
